{"source": "patent US9144569B2", "about": "“Methods of administering an aromatase inhibitor, prostaglandin and GnRH for regulating ovulation in cattle” (UNIVERSITY OF SASKATCHEWAN, priority 2010, dated 2015)", "key": {"[1]": {"test_system": "plasma progesterone", "assay": "Example III: plasma progesterone after letrozole IM", "format": "in vivo, cattle", "conditions": "1 mg/kg IM; P<0.06", "procedure": "(§1) Ovarian cyclicity in heifers was synchronized using transvaginal ultrasound-guided follicular ablation followed by a double dose of PGF 4 days after ablation. The ovaries were examined daily by transrectal ultrasonography to detect ovulation. Three days after ovulation, heifers were assigned randomly to four treatment groups and given letrozole at a dose of 1 mg/kg intravenously (in benzyl alcohol, n=10) or intramuscularly (in benzyl alcohol plus canola oil 1:1 v/v, n=10), or given a placebo intravenously (benzyl alcohol, n=5) or intramuscularly (benzyl alcohol plus canola oil 1:1 v/v, n=5). Ovarian structures were monitored by ultrasonography and blood samples were collected by jugular venipuncture twice daily from pre-treatment to post-treatment ovulations. Comparisons among groups were made by one-way ANOVA for single-point measurements and by ANOVA for repeated measures for time-series data.\nBlood samples collected daily from treatment to post-treatment ovulation.\n(§2) Endpoints are: Follicular diameter profiles; CL diameter profile; Circulating progesterone concentration; Circulating FSH and LH profiles; Letrozole profile and bioavailability; Circulating estradiol concentration Follicular fluid estradiol concentration)."}, "[2]": {"test_system": "plasma LH", "assay": "Example I: plasma LH by double-antibody radioimmunoassay after single iv dose", "format": "in vivo, cattle", "conditions": "for plasma LH concentrations compared to saline-treated controls: doses combined", "procedure": "Heifers in which a CL was detected during the initial examination were given […] cloprostenol (PGF, Estrumate™, Schering-Plough Animal Health, Pointe-Claire, QC, Canada) intramuscularly (im) to induce regression of the CL and to synchronize ovulation. Heifers were examined daily by transrectal ultrasonography to detect ovulation. Transvaginal ultrasound-guided follicular aspiration of follicles ≧5 mm was performed five to eight days after ovulation to synchronize wave emergence. Heifers were examined daily by transrectal ultrasonography to detect follicular wave emergence, which was expected 1 to 1.5 days after follicular ablation. Four days after follicular ablation (approximately 2.5 days after follicular wave emergence), and at the time follicular dominance becomes apparent, heifers were assigned randomly to the following treatment groups and given a single intravenous dose of 1) 500 μg/kg of letrozole (high dose group, n=9), 2) 250 μg/kg of letrozole (medium dose group, n=10), 3) 125 μg/kg of letrozole (low dose group, n=10), or 4) 20 ml of phosphate buffered saline (PBS control group, n=10). For practical purposes, the dose of letrozole was calculated based on an average weight of 400 kg for all heifers. The average oral dose used in women (2.5-5 mg per day for 5 days) was used to estimate the medium dose for cattle. The high and low doses were set as double and half the medium dose, respectively. The day of treatment was defined as Day 0. For intravenous injection, letrozole was prepared in 95% ethanol at a final concentration of 5 mg per ml, resulting in an injection volume of 10-40 ml. The experiment was performed in four replicates (n=2-3 per group per replicate) and each heifer was used only once.\nStatistical analyses were done using the Statistical Analysis System software package (SAS Learning Edition 9.1, 2006; SAS Institute Inc., Cary, N.C., USA). Time-series hormone data, plasma letrozole concentration, and follicular diameter profiles were analyzed by repeated measures, using the PROC MIXED procedure. The main effects were treatment (high, medium and low dose, and control), time, and their interactions."}, "[3]": {"test_system": "heifers", "assay": "Example III: letrozole 1 mg/kg intravenously or intramuscularly in heifers, ovarian ultrasonography", "format": "in vivo, cattle", "conditions": "for Interwave Interval / Interovulatory Interval: mean±SEM", "procedure": "as §1\nTransrectal ultrasonography: daily from PGF treatment to the first ovulation post-treatment.\nas §2"}, "[4]": {"conditions": "cited from earlier work"}}, "note": "Like-named read-outs stand apart in the source and are kept apart here. Marks after values point to notes of the source that are not given here."}
{"smiles": "N#Cc1ccc(C(c2ccc(C#N)cc2)n2cncn2)cc1", "note": "[Letrozole, letrozole]", "values": [{"measurement": "plasma progesterone concentrations vs IM controls", "setting": "[1]", "result": "tended to be higher"}, {"measurement": "plasma LH concentrations compared to saline-treated controls", "setting": "[2]; 4-day period after single iv dose, P=0.01", "result": "higher"}, {"measurement": "plasma LH concentrations compared to saline-treated controls", "setting": "[2]; first 12 hours following single iv dose, P=0.05", "result": "higher"}, {"measurement": "duration of elevated LH levels after treatment", "setting": "[2]; single iv dose", "result": "at least 4 days"}, {"measurement": "time after letrozole at which endogenous LH began to rise", "setting": "[2]; single iv dose", "result": 2, "unit": "h"}, {"measurement": "Interwave Interval", "setting": "[3]; 1 mg/kg IM in benzyl alcohol plus canola oil", "result": "11.7 ± 0.34^b Days"}, {"measurement": "Interwave Interval", "setting": "[3]; 1 mg/kg IM in benzyl alcohol plus canola oil, listed as letrozole", "result": 11.7, "unit": "days"}, {"measurement": "day-to-day diameter profile of the corpus luteum vs IM controls", "setting": "[3]; 1 mg/kg IM, P<0.05", "result": "larger"}, {"measurement": "Interovulatory Interval", "setting": "[3]; 1 mg/kg IM", "result": "19.7 ± 0.83", "unit": "days"}, {"measurement": "Interwave Interval", "setting": "[3]; 1 mg/kg IV in benzyl alcohol", "result": "10.6 ± 0.30^a,b Days"}, {"measurement": "Interwave Interval", "setting": "[3]; 1 mg/kg IV in benzyl alcohol, listed as letrozole", "result": 10.6, "unit": "days"}, {"measurement": "day-to-day diameter profile of the dominant follicle among groups", "setting": "[3]; 1 mg/kg IV or IM vs placebo, Day 3 after ovulation", "result": "not different"}, {"measurement": "Interovulatory Interval", "setting": "[3]; 1 mg/kg IV", "result": "18.9 ± 0.70", "unit": "days"}, {"measurement": "half-life of letrozole", "setting": "[4]; in humans [46]", "result": "approximately 2 days"}, {"measurement": "half-life of letrozole", "setting": "[4]; in women [41, 61]", "result": 48, "unit": "h"}, {"measurement": "mean residence time", "setting": "[4]; in women [41]", "result": 59, "unit": "h"}, {"measurement": "volume of distribution", "setting": "[4]; in women [41]", "result": 1.87, "unit": "L/kg"}]}
